Reference: US20240366602A1, “COMBINATION THERAPY OF APELIN RECEPTOR AGONIST AND GLP-1 RECEPTOR AGONIST FOR TREATING A DISEASE OR CONDITION ASSOCIATED WITH WEIGHT GAIN” (BioAge Labs, Inc., priority 2023, published 2024)

Experiments:
Diet-Induced Obese Mice = assay: Combination of BAL-1480 and tirzepatide in obese mice (Example 6); format: in vivo
Excerpt: To measure the effect of another APJ agonist, BAL-1480, compound 13 as described by Narayanan et al. in J. Med. Chem. 2021, 64, 3006-3025, on weight loss or body composition in Diet-Induced Obese Mice by GLP-1 receptor agonist tirzepatide.
Measurement used and justifications include: body weight, food intake, water intake, non-fasted blood glucose, and body composition by Echo-MRI.
C57BL/6 obese male mice from Jax and housed to 9-months old were fed with a lean control diet D12450B (10 kcal % fat) and a diet-induced obesity (DIO) diet D12492 (60 kcal % fat) (Research Diets, Inc.).
Male DIO mice were acclimated to a single house cage for two weeks. Body weight, morning non-fasted blood glucose, and body composition were measured for randomization. Target DIO weight range at randomization 51.4-67.5 g. After randomization, mice were given treatment as the following groups (All groups were paired with relative dosing s.c. vehicle (20 mM citrate buffer at pH 7.0, 4 mL/kg) or drinking water with addition of 5 mM Sucralose (5 mM Sucralose, pH 3) to insure water consumption despite possible taste alterations from drug).
Study groups • 0. Lean ctrl, n=7 • 1. DIO+VEH (vehicle), n=7 • 2. DIO+BAL-1480 (0.25 g/L in drug water), n=7 • 3. DIO+BAL-1480 (1 g/L in drug water), n=7 • 4. DIO+tirzepatide (10 nmol/kg), n=7 • 5. DIO+tirzepatide (10 nmol/kg)+BAL-1480 (0.25 g/L in drug water), n=7 • 6. DIO+tirzepatide (10 nmol/kg)+BAL-1480 (1 g/L in drug water), n=7
(0) Lean control: age matched lean mice control (5 mM sucralose water+vehicle, s.c., every 3 days); (1) DIO+VEH: diet-induced obese mice treated with vehicle control (5 mM sucralose water, pH 3+vehicle, s.c., every 3 days); (2) DIO+BAL-1480 (0.25 g/L in drug water): diet-induced obese mice treated with BAL-1480 at 0.25 g/L; (3) DIO+BAL-1480 (1 g/L in drug water): diet-induced obese mice treated with BAL-1480 at 1 g/L; (4) DIO+tirzepatide (10 nmol/kg): diet-induced obese mice treated with tirzepatide at 10 nmol/kg, s.c., every 3 days+5 mM sucralose water, pH 3; (5) DIO+tirzepatide (10 nmol/kg)+BAL-1480 (0.25 g/L in drug water): diet-induced obese mice treated with tirzepatide at 10 nmol/kg in combination with BAL-1480 at 0.25 g/L; (6) DIO+tirzepatide (10 nmol/kg)+BAL-1480 (1 g/L in drug water): diet-induced obese mice treated with tirzepatide at 10 nmol/kg in combination with BAL-1480 at 1 g/L.
Tirzepatide (hydrochloride) was purchased from MCE (Cat No. HY—P1731B/CS-0107005). Mw=4849.91, 10 nmol/kg=0.0485 mg/kg, 4 mL/kg, drug concentration: 0.012 mg/mL in s.c. vehicle, every 3 days. BAL-1480 0.25 g/L or 1 g/L was prepared in drinking water with 5 mM Sucralose, pH 3.
Body weight, food intake, water intake, body composition and morning non-fasted blood glucose were measured during the entire study. After 20 days of treatment and measurement, mice were taken down to harvest tissues for further downstream analysis. On the day of necropsy, blood plasma and organ/tissue samples were collected. Tissue samples were weighed and processed for further tests. Terminal cardiac blood samples (Heparin plasma) were obtained.
Data were expressed as mean±SEM and statistically analyzed by 1-way or 2-way ANOVA

[1] = system: Diet-Induced Obese (DIO) mice; assay: Pilot study of BGE-105 in aged DIO mice treated with semaglutide (Example 1); format: in vivo
Excerpt: Endpoints and measurements used to assess effects included: • Body Weight, Clinical Evaluation & Body Condition Score; • Group Food Intake, Water Intake; • Fed Glucose; • Body composition by Echo-MRI; • Baseline and endpoint grid hang tests; and • Endpoint tissue harvest.
25-month-old (aged) C57BL/6 female mice were used in this study. Diet for 25-month-old C57BL/6 mice included lean control D12450B (10 kcal % fat), or a diet induced-obesity (DIO) diet D12492 (60 kcal % fat) (Research Diets, Inc.). The study duration was 37 days. Treatment started on Day 0 and ended on Day 35-36.
Semaglutide was purchased from MCE (Cat No. HY-114118/CS-0069903)
Mice from all Groups (1-5) were measured with fed glucose, and body weight and body composition for randomization.
Body weight, group food intake, group water intake, body composition and grid hang tests were measured and monitored during the study.
On the day of necropsy, blood plasma and tissue samples were collected.

[2] = BAL-1480 monotherapy 1 g/L, both combination groups, vs tirzepatide monotherapy

Molecule	Fatty liver weight and fat tissue weights at terminal harvest (Diet-Induced Obese Mice; BAL-1480 1 g/L and combination groups vs tirzepatide monotherapy)	Muscle to body weight percentages at terminal harvest (Diet-Induced Obese Mice; BAL-1480 1 g/L and combination groups, to similar level as lean control mice)	Fat mass percentage (Diet-Induced Obese Mice; [2])	Lean mass percentage (Diet-Induced Obese Mice; [2])	Lean/fat ratio (Diet-Induced Obese Mice; [2])	Absolute fat mass (Diet-Induced Obese Mice; BAL-1480 monotherapy 1 g/L, combinations tirzepatide 10 nmol/kg + BAL-1480 0.25 or 1 g/L, vs tirzepatide monotherapy)	Weight loss (Diet-Induced Obese Mice; obese mice, BAL-1480 0.25 and 1 g/L in drinking water)	Muscle function, grid hang test (latency before mice fell from the grid) ([1]; semaglutide 100 nmol/kg, BGE-105 1.1 mg/mL, combination compared to either agent alone)	Weight of perigonadal fat at study endpoint ([1]; semaglutide 100 nmol/kg, BGE-105 1.1 mg/mL, combination loss statistically significant)	Quadriceps weight as a percentage of total body weight at study endpoint ([1]; semaglutide 100 nmol/kg, BGE-105 1.1 mg/mL, vs DIO control mice)	neutrophil gelatinase-associated lipocalin (NGAL) level at study endpoint ([1]; vs DIO control mice)
COc1cccc(OC)c1-c1cc(C(=O)N[C@@H](CCN2CCCCC2)CC(=O)NC2CCC2)nn1C1CCCC1 [BAL-1480]	reduced the fatty liver weight and fat tissue weights	dramatically increased the muscle to body weight percentages	significant decrease of fat mass percentage	significant increase of lean mass percentage	significant increase of lean/fat ratio	significant reduction of absolute fat mass	dose-dependent effect on weight loss				
semaglutide [reference compound]								increased muscle function	statistically insignificant loss in perigonadal fat	increased quadricep weight as a percentage of total body weight, but the increases did not achieve statistical significance	decreased plasma NGAL level
